Experimental data as given in patent publication US20130310374A1, “Substituted Imidazoquinoline Derivatives” (PIRAMAL ENTERPRISES LIMITED`, priority 2010, published 2013).

How the values were obtained:
[1] = tested on: human PC3 xenograft tumors; assay: Prostate cancer xenograft model (tumor growth inhibition in vivo); parameters: species or system mouse; settings: SCID mice, 3 mpk p.o. (Example 3a once daily and BID; Example 19 once daily), 15 days; FIG. 3A
Procedure: Animals: Severe combined immunodeficient (SCID) mice (Male and Female) 6 to 8 weeks old, were used. Animals were housed in suitable cages under specified pathogen-free conditions in rooms maintained at 23° C. and 50% humidity, with a 12-hour light/12-hour dark cycle. The mice were quarantined during the acclimatization period of at least a week.
Prostate cancer xenograft model: PC3 (human prostate cancer) cell line (ATCC) was maintained in RPMI 1640 (Gibco BRL, Pasley, UK) supplemented with 10% (v/v) FBS. The cells were incubated at 37° C. in a humidified atmosphere containing 5% CO2. Cells were passaged using trypsin/EDTA for cell detachment once every 3 days. On the day of tumor cell injection, cells were detached from the flasks with trypsin/EDTA, washed once in medium and re-suspended in serum free RPMI 1640 at 5 million cells/0.2 mL volume, and placed on ice. […]
Procedure: Tumor-bearing mice were randomized (n=7 per group) in four groups when the mean tumor volume was ˜100 mm^3. […] Twice a week, each xenograft was measured in two dimensions (a=length; b=width) with a caliper. Tumor volume (V) was determined by the following equation: V=ab^2/2
Tumor volumes were converted into tumor weights assuming a tumor density of 1 mm^3=1 mg. Tumor growth inhibition (TGI) for each group was calculated according to the following formula: […]

[2] = biological target: T1, PI3Kα (Homo sapiens, UniProt P42336); assay: p110α radioactive lipid kinase assay (PI3Kα); format: biochemical; settings: 25 μM ATP
T1 construct: purchased Upstate Millipore
Procedure: Protocol for Kinase Assay (PI3Kα)
p110α Radioactive Lipid Kinase Assay
The assay was designed as in the reference, Journal of Biomolecular Screening, 2002, Vol. 7, No. 5, 441-450, the disclosure of which is incorporated herein by reference for the teaching of the assay.
The p110α biochemical assay was performed using a radioactive assay measuring the incorporation of ^32P into the p110α substrate, phosphatidylinsoitol (PI). For the generation of IC50 curves, the reaction was performed in a 96-well MaxiSorp plates. Plates were pre-coated with 4 μg/well of a 1:1 ratio of phosphatidylinositol (PI: Avanti #840042C) and phosphatidylserine (PS: Avanti #840032C) diluted in CHCl3. Equal amount of p110α (Upstate Millipore) protein was added to each well, containing 25 μL reaction buffer (50 mM MOPSO pH7.0, 100 mM NaCl, 4 mM MgCl2, 0.1% (w/v) BSA) whereas, for negative control, only reaction buffer was added. Compounds of the present invention dissolved in DMSO were treated at nine-point dose responses (0.3, 1, 3, 6, 10, 30, 60, 100 and 300 nM). Reactions were initiated by the addition of 25 μM ATP solution (Sigma, USA) containing 50 μCi/mL [γ-^32P]-ATP and incubated at RT for 2 hours with gentle shaking. […] The radioactivity incorporated into the immobilized PI substrate was determined with Top Count (Perkin Elmer). Inhibition was calculated using the following equation: […]

[3] = tested on: U 87 MG; assay: Cytotoxicity propidium iodide assay, U 87 MG; format: cell-based; settings: Homo sapiens; U 87 MG (glioblastoma), 48 hours treatment; read-out: IC50 Values in μM, C5c
Procedure: The assay was designed as in the reference, Anticancer Drugs, 2002, 13, 1-8, the disclosure of which is incorporated herein by reference for the teaching of the assay.
Cells from cell lines (ATCC) as mentioned in the table given below were seeded at a density of 3000 cells/well in a white opaque 96-well plate. Following incubation at 37° C./5% CO2 for a period of 18-24 hours, the cells were treated with various concentrations (stock solution was prepared in DMSO and subsequent dilutions were made in media as per ATCC guidelines) of the compounds of the present invention for a period of 48 hours. At the end of treatment, the culture medium was discarded, the cells were washed with 1×PBS and 200 μL of […] propidium iodide was added to each well. […] For analysis, the plates were warmed to RT, allowed to thaw and were read in PoleStar fluorimeter with the fluorescence setting. The percentage of viable cells in the non-treated set of wells was considered to be 100 and the percentage viability following treatment was calculated accordingly. IC50 values were calculated from graphs plotted using these percentages. IC50 values for certain compounds of present invention are depicted in Table 1 and % Inhibition of certain compounds of present invention are depicted in Table 2.

T1 sequence (P42336 whole entry, species assumed): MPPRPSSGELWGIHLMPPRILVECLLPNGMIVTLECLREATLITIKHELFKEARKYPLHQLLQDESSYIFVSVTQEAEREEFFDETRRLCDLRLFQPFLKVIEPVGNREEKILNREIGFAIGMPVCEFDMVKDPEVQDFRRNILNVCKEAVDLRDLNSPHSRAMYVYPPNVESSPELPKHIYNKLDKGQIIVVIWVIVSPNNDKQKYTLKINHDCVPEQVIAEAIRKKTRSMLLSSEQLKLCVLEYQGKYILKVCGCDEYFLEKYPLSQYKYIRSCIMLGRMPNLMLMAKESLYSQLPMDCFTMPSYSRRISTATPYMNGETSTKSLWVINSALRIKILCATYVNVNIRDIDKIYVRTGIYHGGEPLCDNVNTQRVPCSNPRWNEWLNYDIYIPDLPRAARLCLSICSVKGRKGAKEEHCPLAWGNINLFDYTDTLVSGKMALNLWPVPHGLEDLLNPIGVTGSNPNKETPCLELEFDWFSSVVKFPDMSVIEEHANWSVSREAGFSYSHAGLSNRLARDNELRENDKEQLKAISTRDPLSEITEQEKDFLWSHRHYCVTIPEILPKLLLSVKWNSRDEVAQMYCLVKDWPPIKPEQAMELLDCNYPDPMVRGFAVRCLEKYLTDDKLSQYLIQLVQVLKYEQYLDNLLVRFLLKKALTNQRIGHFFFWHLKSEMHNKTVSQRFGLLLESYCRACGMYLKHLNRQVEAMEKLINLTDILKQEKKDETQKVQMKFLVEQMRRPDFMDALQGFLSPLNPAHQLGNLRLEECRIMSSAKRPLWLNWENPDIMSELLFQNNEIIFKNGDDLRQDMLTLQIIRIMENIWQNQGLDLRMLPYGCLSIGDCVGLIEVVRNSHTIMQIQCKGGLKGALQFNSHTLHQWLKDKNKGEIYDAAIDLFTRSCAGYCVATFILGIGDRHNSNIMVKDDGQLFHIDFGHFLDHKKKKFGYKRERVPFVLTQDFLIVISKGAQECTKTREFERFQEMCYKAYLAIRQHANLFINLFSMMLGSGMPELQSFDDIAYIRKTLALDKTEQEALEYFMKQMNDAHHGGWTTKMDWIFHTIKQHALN
T1 sequence (P27986 whole entry partner, species assumed): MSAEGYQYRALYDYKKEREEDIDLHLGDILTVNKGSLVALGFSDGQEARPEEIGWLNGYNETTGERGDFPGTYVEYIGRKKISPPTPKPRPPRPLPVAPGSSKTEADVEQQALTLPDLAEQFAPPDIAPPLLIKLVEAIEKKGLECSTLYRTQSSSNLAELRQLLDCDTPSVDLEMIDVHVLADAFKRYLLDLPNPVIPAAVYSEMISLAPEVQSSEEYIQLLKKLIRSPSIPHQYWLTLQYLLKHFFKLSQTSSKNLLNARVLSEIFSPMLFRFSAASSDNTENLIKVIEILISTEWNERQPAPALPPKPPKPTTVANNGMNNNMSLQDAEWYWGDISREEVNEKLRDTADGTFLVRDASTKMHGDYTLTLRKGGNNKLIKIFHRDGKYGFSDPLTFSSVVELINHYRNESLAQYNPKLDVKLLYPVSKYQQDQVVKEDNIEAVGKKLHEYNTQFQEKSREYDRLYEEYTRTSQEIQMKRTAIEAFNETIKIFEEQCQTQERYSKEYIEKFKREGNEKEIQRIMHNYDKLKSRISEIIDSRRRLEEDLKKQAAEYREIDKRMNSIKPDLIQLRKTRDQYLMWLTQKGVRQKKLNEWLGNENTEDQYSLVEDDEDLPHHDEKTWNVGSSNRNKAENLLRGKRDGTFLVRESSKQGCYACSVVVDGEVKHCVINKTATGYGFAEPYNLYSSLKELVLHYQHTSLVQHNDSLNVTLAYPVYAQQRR

Compound | Tumor growth in-vivo, PC3 xenograft [1] | IC50 [2] [nM] | IC50 [3] [µM]
CS(=O)(=O)O.Cn1c(=O)n(-c2ccc(C(C)(C)C#N)nc2)c2c3cc(-c4cnc(N)c(C(F)(F)F)c4)ccc3ncc21 [Example 3a, 8-(6-Amino-5-(trifluoromethyl)pyridin-3-yl)-1-(6-(2-cyanopropan-2-yl)pyridin-3-yl)-3-methyl-2-oxo-2,3-dihydro-1H-imidazo[4,5-c]quinolin-5-ium methanesulfonate] | effectively inhibit tumor growth in-vivo | 1.37 | –
CC(C)(C#N)c1ccc(-n2c(=O)n(CC#N)c3cnc4ccc(-c5cnc(N)c(C(F)(F)F)c5)cc4c32)cn1 [Example 16, 2-(5-(8-(6-Amino-5-(trifluoromethyl)pyridin-3-yl)-3-(cyanomethyl)-2-oxo-2,3-dihydro-1H-imidazo[4,5-c]quinolin-1-yl)pyridin-2-yl)-2-methylpropanenitrile] | – | – | 7.75
COc1ccc(-n2c(=O)n(C)c3cnc4ccc(-c5cnc(N)c(C(F)(F)F)c5)cc4c32)cn1 [Example 19, 8-(6-Amino-5-(trifluoromethyl)pyridin-3-yl)-1-(6-methoxypyridin-3-yl)-3-methyl-1H-imidazo[4,5-c]quinolin-2(3H)-one] | effectively inhibit tumor growth in-vivo | 2.89 | 3.88
